Source: patent US10752595B2, “Crystalline forms of a bromodomain and extraterminal protein inhibitor drug, processes for preparation thereof, and use thereof” (Crystal Pharmaceutical (Suzhou) Co., Ltd., priority 2016, dated 2020)
In brackets after ≈: the same amount, converted by molar mass. Entries after “also recorded” stand apart in the source; their conditions may differ.

Key:
[1] = Solubility study: saturated solutions in SGF and FeSSIF, concentration by HPLC; format: physicochemical; conditions: for Solubility FeSSIF: FeSSIF (fed state simulated intestinal fluids, pH=5.0); for Solubility SGF: SGF (simulated gastric fluids)
Excerpt: High Performance Liquid Chromatography (HPLC) data in the present disclosure were collected from an Agilent 1260 with Diode Array Detector (DAD). The HPLC method parameters for purity test in the present disclosure are as follows: • 1. Column: Waters XBridge C18 150×4.6 mm, 5 μm • 2. Mobile Phase: A: 0.1% TFA in H2O • B: 0.1% TFA in Acetonitrile
The prepared apabetalone Form CS2 was suspended into SGF (simulated gastric fluids) and FeSSIF (fed state simulated intestinal fluids, pH=5.0) to obtain saturated solutions. After being equilibrated for 1 h and 24 h, concentrations of the saturated solutions were measured by HPLC.
The prepared Form CS8 was suspended into SGF (simulated gastric fluids) and FeSSIF (fed state simulated intestinal fluids, pH=5.0) to obtain saturated solutions. After being equilibrated for 1 h, concentrations of the saturated solutions were measured by HPLC.
The prepared Form CS13 was suspended into SGF (simulated gastric fluids) and FeSSIF (fed state simulated intestinal fluids, pH=5.0) to obtain saturated solutions. After being equilibrated for 1 h, 4 h and 24 h, concentrations of the saturated solutions were measured by HPLC.
The prepared apabetalone Form CS20 was suspended into SGF (simulated gastric fluids) and FeSSIF (fed state simulated intestinal fluids, pH=5.0) to obtain saturated solutions. After being equilibrated for 1 h, 4 h and 24 h, concentrations of the saturated solutions were measured by HPLC.
The prepared solid of apabetalone Form CS1 was suspended into SGF (simulated gastric fluids) and FeSSIF (fed state simulated intestinal fluids, pH=5.0) to obtain saturated solutions. After being equilibrated for 1 h, 4 h and 24 h, concentrations of the saturated solutions were measured by HPLC.
The prepared solid of apabetalone Form CS7 was suspended into SGF (simulated gastric fluids) and FeSSIF (fed state simulated intestinal fluids, pH=5.0) to obtain saturated solutions. After being equilibrated for 1 h, 4 h and 24 h, concentrations of the saturated solutions were measured by HPLC.
The prepared solid of apabetalone Form CS9 was suspended into SGF (simulated gastric fluids) and FeSSIF (fed state simulated intestinal fluids, pH=5.0) to obtain saturated solutions. After being equilibrated for 1 h, 4 h and 24 h, concentrations of the saturated solutions were measured by HPLC.
The prepared solid of apabetalone Form CS11 was suspended into SGF (simulated gastric fluids) and FeSSIF (fed state simulated intestinal fluids, pH=5.0) to obtain saturated solutions. After being equilibrated for 1 h, 4 h and 24 h, concentrations of the saturated solutions were measured by HPLC.
The prepared solid of apabetalone Form CS4 was suspended into SGF (simulated gastric fluids) and FeSSIF (fed state simulated intestinal fluids, pH=5.0) to obtain saturated solutions. After being equilibrated for 1 h, 4 h and 24 h, concentrations of the saturated solutions were measured by HPLC.

[2] = Stability study: open-dish storage in constant temperature and humidity chambers, XRPD and purity check; format: physicochemical; conditions: for Form change and purity decrease after storage / Purity after storage: open dish
Experimental: Form CS8 was placed in a constant temperature and humidity chamber at 25° C./60% RH for 2 weeks in open dish. Crystalline form of the sample were tested by XRPD and impurity of the sample were checked. […] Crystalline form of the sample were tested by XRPD and impurity of the sample were checked. […] Two samples of apabetalone Form CS1 were placed in constant temperature and humidity chambers at 25° C./60% RH and 40° C./75% RH for 10 months in open dishes. The samples were characterized by XRPD and chemical impurity. […] Three samples of apabetalone Form CS7 were placed in constant temperature and humidity chambers at 25° C./60% RH and 40° C./75% RH for 4 weeks and 80° C. for 1 day in open dishes. Crystalline form of the sample were tested by XRPD and impurity of the sample were checked. […] Two samples of apabetalone Form CS9 were placed in constant temperature and humidity chambers at 25° C./60% RH and 40° C./75% RH for 10 months in open dishes. Crystalline form of the sample were tested by XRPD and impurity of the sample were tested to check the stability of Form CS9. […] Two samples of apabetalone Form CS11 were placed in constant temperature and humidity chambers at 25° C./60% RH and 40° C./75% RH for 6 weeks in open dishes. Crystalline form of the sample were tested by XRPD and impurity of the sample were tested to check the stability of Form CS11. […] Two samples of apabetalone Form CS4 were placed in open dishes in constant temperature and humidity chambers at 25° C./60% RH and 40° C./75% RH for 10 months. Crystalline form of the sample were tested by XRPD and impurity of the sample were tested to check the stability of Form CS4.

[3] = Formulation study: form stability in the capsule preparation; format: physicochemical; conditions: capsule with microcrystalline cellulose, croscarmellose sodium, magnesium stearate
Experimental: Certain amount of the API, microcrystalline cellulose, croscarmellose sodium according to Table 5.8 and 2 mg of magnesium stearate were weighted and blended for 2 minutes. Flakes were prepared using a manual tablet press at 5 KN pressure with a φ20 mm round tooling. The crushed flakes were manually sieved through 20 mesh sieve. 2 mg of magnesium stearate was added, and then the obtained powder was blended for 1 minute. The mixture was encapsulated into a 1# capsule shell, then the capsule was packed in 35 cc HDPE (high density polyethylene) bottle (one capsule per bottle) containing 1 g of desiccant. The bottle was then sealed by sealing machine.

[4] = Hygroscopicity by dynamic vapor sorption (DVS); format: physicochemical; conditions: for Hygroscopicity class: Chinese Pharmacopoeia 2015 criteria, 80% RH; for Hygroscopicity class / Weight Gain under 80% Relative Humidity: 25° C.; for Weight Gain under 80% Relative Humidity: DVS, about 10 mg of sample; for Form change after DVS test (XRPD): XRPD before and after DVS test
Experimental: Dynamic Vapor Sorption (DVS) was measured via a SMS (Surface Measurement Systems Ltd.) intrinsic DVS instrument. Its control software is DVS—Intrinsic control software, and its analysis software is DVS—Intrinsic Analysis software. Typical Parameters for DVS test are as follows: • Temperature: 25° C. • Gas and flow rate: N2, 200 mL/min • dm/dt: 0.002%/min • RH range: 0% RH to 95% RH Dynamic vapor sorption (DVS) was applied to test hygroscopicity of Form CS8 in the present disclosure with about 10 mg of sample. […] Dynamic vapor sorption (DVS) was applied to test hygroscopicity of Form CS1 of the present disclosure with about 10 mg of sample. […] Dynamic vapor sorption (DVS) was applied to test hygroscopicity of Form CS7 of the present disclosure with about 10 mg of samples. Dynamic vapor sorption (DVS) was applied to test hygroscopicity of Form CS9 of the present disclosure with about 10 mg of sample. […] Dynamic vapor sorption (DVS) was applied to test hygroscopicity of Form CS4 of the present disclosure with about 10 mg of sample.

[5] = Mechanical stability: manual grinding for 5 minutes, XRPD; format: physicochemical; conditions: ground manually in a mortar for 5 minutes
Experimental: Certain amount of Form CS1 was placed in a mortar and ground manually for 5 minutes. XRPD of the solid obtained was tested. Certain amount of Form CS4 was placed in a mortar and ground manually for 5 minutes. Crystalline form of the sample was checked by XRPD.

[6] = Dissolution test of Form CS1 capsule; format: physicochemical; conditions: capsule with 50 mg API; HCl (0.1 mol/L), paddle, 900 mL, 75 rpm, 37° C.; at 20 minutes
Experimental: Certain amount of the API, microcrystalline cellulose, croscarmellose sodium according to Table 5.8 and 2 mg of magnesium stearate were weighted and blended for 2 minutes. Flakes were prepared using a manual tablet press at 5 KN pressure with a φ20 mm round tooling. The crushed flakes were manually sieved through 20 mesh sieve. 2 mg of magnesium stearate was added, and then the obtained powder was blended for 1 minute. The mixture was encapsulated into a 1# capsule shell, then the capsule was packed in 35 cc HDPE (high density polyethylene) bottle (one capsule per bottle) containing 1 g of desiccant. The bottle was then sealed by sealing machine. […] Dissolution test was performed on the obtained capsule. The conditions are as follows: Medium: HCl (0.1 mol/L) Method: Paddle Volume: 900 mL Speed: 75 rpm Temperature: 37° C.

BRD4 of BET family = BRD4 of BET family (Homo sapiens, UniProt O60885); conditions: background statement, regulates ApoA-1 expression; cited from earlier work

SMILES: COc1cc(OC)c2c(=O)[nH]c(-c3cc(C)c(OCCO)c(C)c3)nc2c1 [Form CS1, 2-[4-(2-hydroxyethoxy)-3,5-dimethylphenyl]-5,7-dimethoxyquinazolin-4(3H)-one]
- Solubility FeSSIF ([1]; equilibrated 1 h): 140 µg/mL (≈ 378 µM)
- Solubility FeSSIF ([1]; equilibrated 4 h): 110 µg/mL (≈ 297 µM)
- Solubility FeSSIF ([1]; equilibrated 24 h): 140 µg/mL (≈ 378 µM)
- Solubility SGF ([1]; equilibrated 1 h): 310 µg/mL (≈ 837 µM)
- Solubility SGF ([1]; equilibrated 4 h): 290 µg/mL (≈ 783 µM)
- Solubility SGF ([1]; equilibrated 24 h): 330 µg/mL (≈ 891 µM)
- Time the form is stable when stored ([2]; 25° C./60% RH): at least 10 months
- Form change and purity decrease after storage ([2]; 25° C./60% RH, 10 months): No form change and obvious purity decrease
- Purity after storage ([2]; 25° C./60% RH, 1 week): 99.27
- Purity after storage ([2]; 25° C./60% RH, 2 weeks): 99.23
- Purity after storage ([2]; 25° C./60% RH, 5 weeks): 99.25
- Purity after storage ([2]; 25° C./60% RH, 10 months): 99.24
- Time the form is stable when stored ([2]; 40° C./75% RH): at least 10 months
- Form change and purity decrease after storage ([2]; 40° C./75% RH, 10 months): No form change and obvious purity decrease
- Purity after storage ([2]; 40° C./75% RH, 1 week): 99.20
- Purity after storage ([2]; 40° C./75% RH, 2 weeks): 99.20
- Purity after storage ([2]; 40° C./75% RH, 5 weeks): 99.25
- Purity after storage ([2]; 40° C./75% RH, 10 months): 99.21
- Stability of the form in the preparations [3]: stable in the preparations
- Hygroscopicity class [4]: almost non hygroscopic
- Weight Gain under 80% Relative Humidity [4]: 0.13%
- Form change after DVS test (XRPD) [4]: No form change; also recorded: doesn't change
- Form change and crystallinity decrease after manual grinding (XRPD) [5]: no form change and obvious crystallity decrease; also recorded: doesn't change after manual grinding
- Released amount in dissolution test [6]: more than 90%

SMILES: COc1cc(OC)c2c(=O)[nH]c(-c3cc(C)c(OCCO)c(C)c3)nc2c1 [Form CS4, 2-[4-(2-hydroxyethoxy)-3,5-dimethylphenyl]-5,7-dimethoxyquinazolin-4(3H)-one]
- Solubility FeSSIF ([1]; equilibrated 1 h): 140 µg/mL (≈ 378 µM)
- Solubility FeSSIF ([1]; equilibrated 4 h): 100 µg/mL (≈ 270 µM)
- Solubility FeSSIF ([1]; equilibrated 24 h): 160 µg/mL (≈ 432 µM)
- Solubility SGF ([1]; equilibrated 1 h): 300 µg/mL (≈ 810 µM)
- Solubility SGF ([1]; equilibrated 4 h): 280 µg/mL (≈ 756 µM)
- Solubility SGF ([1]; equilibrated 24 h): 380 µg/mL (≈ 1030 µM)
- Time the form is stable when stored ([2]; 25° C./60% RH): at least 10 months
- Form change and purity decrease after storage ([2]; 25° C./60% RH, 10 months): No form change and obvious purity decrease
- Purity after storage ([2]; 25° C./60% RH, 1 week): 99.10
- Purity after storage ([2]; 25° C./60% RH, 2 weeks): 99.06
- Purity after storage ([2]; 25° C./60% RH, 4 weeks): 99.05
- Purity after storage ([2]; 25° C./60% RH, 10 months): 99.04
- Time the form is stable when stored ([2]; 40° C./75% RH): at least 10 months
- Form change and purity decrease after storage ([2]; 40° C./75% RH, 10 months): No form change and obvious purity decrease
- Purity after storage ([2]; 40° C./75% RH, 1 week): 99.10
- Purity after storage ([2]; 40° C./75% RH, 2 weeks): 98.99
- Purity after storage ([2]; 40° C./75% RH, 4 weeks): 99.04
- Purity after storage ([2]; 40° C./75% RH, 10 months): 99.02
- Hygroscopicity class [4]: almost non hygroscopic
- Weight Gain under 80% Relative Humidity [4]: 0.12%
- Form change after DVS test (XRPD) [4]: doesn't change; also recorded: No form change
- Form change and crystallinity decrease after manual grinding (XRPD) [5]: doesn't change after manual grinding; also recorded: no form change and obvious crystalline decrease

SMILES: COc1cc(OC)c2c(=O)[nH]c(-c3cc(C)c(OCCO)c(C)c3)nc2c1 [apabetalone, 2-[4-(2-hydroxyethoxy)-3,5-dimethylphenyl]-5,7-dimethoxyquinazolin-4(3H)-one]
- Inhibition of BRD4 (BRD4 of BET family): can inhibit BRD4
